In experiment [1] the target is T1, PameOBP1 (Periplaneta americana, UniProt B6E9U7). Nature of the experiment: Binding of fluorescent probe 1-NPN to PameOBP1 (saturation, Scatchard). Conditions: read-out: dissociation constant of 1-NPN for PameOBP1. As for the experimental part:
(§1) Emission fluorescence spectra were measured on a Hitachi F-4500 fluorescence spectrophotometer following our previous studies. Firstly, dissociation constants of the PameOBPs for N-phenyl-1-naphtylamine (1-NPN) were calculated to determine the suitability of 1-NPN as a fluorescence reporter. After the determination of the reporter, the affinities of the PameOBPs for each ligand were measured using 2 μM 1-NPN as the fluorescent reporter and 0.25–2.5 μM or 2–40 μM as competitor, in at least three technical replicates. The binding data were analyzed following our previous studies.
(§2) To investigate the role of three PameOBPs in the detection of odorants, we firstly tested the binding affinity of PameOBPs to fluorescent probe 1-NPN. […] Saturation and linear Scatchard plots (Fig 5A) indicated single binding sites in the proteins with no allosteric effects. We were, therefore, able to use the fluorescence competitive binding assay to determine the binding affinities of these three PameOBPs to 87 odorants from apple, grape, peach, pear, the juice of these fruits, and beer.

Experiment [2] deals with T2, PameOBP2 (Periplaneta americana, UniProt B6E9U8). Nature of the experiment: Binding of fluorescent probe 1-NPN to PameOBP2 (saturation, Scatchard). Conditions: read-out: dissociation constant of 1-NPN for PameOBP2. As for the experimental part:
as §1, §2

The target in experiment [3] is T3, PameOBP3 (Periplaneta americana, UniProt B6E9U9). Nature of the experiment: Binding of fluorescent probe 1-NPN to PameOBP3 (saturation, Scatchard). Conditions: read-out: dissociation constant of 1-NPN for PameOBP3. As for the experimental part: as §1, §2
For experiment [4], the target named is T1, PameOBP1. The experiment can be described thus: Competitive fluorescence binding assay (1-NPN displacement), recombinant PameOBP1. The note with it: 2 μM 1-NPN as fluorescent reporter, competitor 0.25–2.5 μM or 2–40 μM. The source says: (§3) The PameOBPs were expressed by using Escherichia coli expression system. To generate properly folded protein, the signal peptide predicted by SignalIP 4.1 [18] was removed. The two PameOBPs were amplified by gene special primers (S1 Table) with the cDNA as the template. The purified PCR products were ligated into expression vector pGEX-4T-1 using In-Fusion® HD Cloning Kit (Clontech, Mountain View, CA) according to the manufacturer’s instructions. The recombinant plasmid was transformed into E. coli BL21 (DE3) cells, and then expression and purification was performed according to a previously reported protocol. Recombinant proteins in the supernatant were purified by an affinity chromatography column GSTrap FF (GE Healthcare, Piscataway, NJ, USA). The GST tags were cleaved from recombinant proteins using 400 μL of thrombin (1U/μL) while loaded on GSTrap FF column at 25°C for 10 h and allowed 12 h. After that, the recombinant proteins were eluted with PBS buffer. Finally, the eluted proteins were desalted using HiTrap Desalting (GE Healthcare), lyophilized, and stored at −80°C until use.
(§4) Emission fluorescence spectra were measured on a Hitachi F-4500 fluorescence spectrophotometer following our previous studies. Firstly, dissociation constants of the PameOBPs for N-phenyl-1-naphtylamine (1-NPN) were calculated to determine the suitability of 1-NPN as a fluorescence reporter. […] The binding data were analyzed following our previous studies.

Experiment [5] has as its target T2, PameOBP2. Nature of the experiment: Competitive fluorescence binding assay (1-NPN displacement), recombinant PameOBP2. The note with it: 2 μM 1-NPN as fluorescent reporter, competitor 0.25–2.5 μM or 2–40 μM.
Excerpt: as §3, §4

Experiment [6] concerns the target T3, PameOBP3. Nature of the experiment: Competitive fluorescence binding assay (1-NPN displacement), recombinant PameOBP3.
Excerpt: as §3, §4

Setting [7] is: 2 μM 1-NPN as fluorescent reporter, competitor 0.25–2.5 μM or 2–40 μM, read-out: PameOBP3 Ki.

SMILES strings stand for the structures. Like-named read-outs stand apart in the source and are kept apart here.

By Ki is commonly meant the dissociation constant of the complex between target and ligand, obtained from inhibition or displacement.

T3 sequence (B6E9U9 entry or part of it): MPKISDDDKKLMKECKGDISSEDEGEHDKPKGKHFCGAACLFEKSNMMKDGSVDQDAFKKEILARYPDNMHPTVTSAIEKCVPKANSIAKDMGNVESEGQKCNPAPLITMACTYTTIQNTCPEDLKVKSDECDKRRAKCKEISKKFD
T1 sequence (B6E9U7 entry or part of it): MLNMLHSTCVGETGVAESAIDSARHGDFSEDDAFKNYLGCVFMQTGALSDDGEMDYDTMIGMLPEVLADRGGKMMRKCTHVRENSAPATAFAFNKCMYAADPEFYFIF
T2 sequence (B6E9U8 entry or part of it): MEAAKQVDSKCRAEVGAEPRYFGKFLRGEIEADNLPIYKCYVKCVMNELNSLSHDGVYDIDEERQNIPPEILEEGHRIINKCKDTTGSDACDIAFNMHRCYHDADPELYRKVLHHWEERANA

Consider `c1ccc(Nc2cccc3ccccc23)cc1` [1-NPN, N-phenyl-1-naphtylamine], for which the results for the Kd in experiment [1], in experiment [2] and in experiment [3] were 20.5 µM, 8.04 µM and 24.9 µM, respectively.

On to `C=CC(C)(O)CCC=C(C)C` (stereo not drawn) [linalool], for which the Ki in experiment [4] (PameOBP1 Ki), in experiment [5] (PameOBP2 Ki) and in experiment [6] was over 40 µM each time.

On to `COC(=O)c1ccccc1O` [methyl salicylate], for which the inhibition constant (Ki) in experiment [4] (PameOBP1 Ki), in experiment [5] (PameOBP2 Ki) and in experiment [6] was over 40 µM each time.

`c1ccc2ccccc2c1` [naphthalene]: the inhibitory constant (Ki) in experiment [4] (PameOBP1 Ki), in experiment [5] (PameOBP2 Ki) and in experiment [6] was over 40 µM throughout.

For `CCCCCCCCCOC(C)=O` [nonyl acetate], the inhibition constant (Ki) in experiment [4] (read-out: PameOBP1 Ki), in experiment [5] (read-out: PameOBP2 Ki) and in experiment [6] (setting [7]) was over 40 µM in each case.

For the molecule `CCCCCCCCCCCCCCCCCC` [octadecane], the Ki in experiment [4] (read-out: PameOBP1 Ki), in experiment [5] (read-out: PameOBP2 Ki) and in experiment [6] (setting [7]) was over 40 µM each time.

Turning to `CCCCCCCCOC(C)=O` [octyl acetate], the inhibitory constant (Ki) in experiment [4] (read-out: PameOBP1 Ki), in experiment [5] (read-out: PameOBP2 Ki) and in experiment [6] (setting [7]) was over 40 µM throughout.

With `CCCCCOC(C)=O` [pentyl acetate], the inhibition constant (Ki) in experiment [4] (read-out: PameOBP1 Ki), in experiment [5] (read-out: PameOBP2 Ki) and in experiment [6] (setting [7]) was over 40 µM throughout.

As for `OCCc1ccccc1` [phenethyl alcohol], the Ki in experiment [4] (read-out: PameOBP1 Ki), in experiment [5] (read-out: PameOBP2 Ki) and in experiment [6] (setting [7]) was over 40 µM in each case.

Regarding `O=CCc1ccccc1` [phenylacetaldehyde], the Ki in experiment [4] (PameOBP1 Ki), in experiment [5] (PameOBP2 Ki) and in experiment [6] was over 40 µM in each case.

As to `CCC/C=C/C=O` [trans-2-hexenal], the Ki in experiment [4] (PameOBP1 Ki), in experiment [5] (PameOBP2 Ki) and in experiment [6] was over 40 µM in each case.

`CCC/C=C/COC(C)=O` [trans-2-hexenyl acetate]: the Ki in experiment [4] (read-out: PameOBP1 Ki), in experiment [5] (read-out: PameOBP2 Ki) and in experiment [6] (setting [7]) was over 40 µM in each case.

Turning to `CCC/C=C/COC(=O)CCC` [trans-2-hexenyl butyrate], the inhibition constant (Ki) in experiment [4] (read-out: PameOBP1 Ki), in experiment [5] (read-out: PameOBP2 Ki) and in experiment [6] (setting [7]) was over 40 µM in each case.

With `CCCCCCCCCCCCC` [tridecane], the inhibitory constant (Ki) in experiment [4] (read-out: PameOBP1 Ki), in experiment [5] (read-out: PameOBP2 Ki) and in experiment [6] (setting [7]) was over 40 µM throughout.

For the molecule `CCCCCCCCCCC=O` [undecanal], the Ki in experiment [4] (read-out: PameOBP1 Ki), in experiment [5] (read-out: PameOBP2 Ki) and in experiment [6] (setting [7]) was over 40 µM each time.

Turning to `CCCCCCCCCCC` [undecane], the inhibitory constant (Ki) in experiment [4] (read-out: PameOBP1 Ki), in experiment [5] (read-out: PameOBP2 Ki) and in experiment [6] (setting [7]) was over 40 µM each time.

For the origin of these results see article PMC5232348, “Molecular and Functional Characterization of Three Odorant-Binding Protein from Periplaneta americana” (PLoS ONE, 2017).
